What was measured:
[1] = Aerodynamic particle size distribution and delivery performance, Andersen Cascade Impactor; type: physicochemical
Experimental: The aerodynamic particle size distribution of each tested formulation was characterized using a Multistage Cascade Impactor according to the procedure described in European Pharmacopoeia 2nd edition, 1995, part V.5.9.1, pages 15-17. In this specific case, an Andersen Cascade Impactor (ACI) was used.
Results were obtained as a mean of 3-4 cans. For each device, 5-25 cumulative actuations were carried out after discarding the first 5.
Deposition of the drug on each ACI plate was determined by high pressure liquid chromatography (HPLC). Mean metered dose was calculated from the cumulative deposition in the actuator and ACI (stages); mean delivered dose was calculated from the cumulative deposition in the ACI. Mean respirable dose (fine particle dose) was obtained from the deposition on Stages 3 to filter corresponding to particles ≦4.71 μm, divided by the number of actuations per experiment.
MAD and associated GSD (standard geometric deviation) values were obtained from probit transformation of cumulative percent undersize—log (ACI effective cut-off particle size diameter) and linear regression analysis of the resultant data, (Ph. Eur. Supp 1999).
The use of a metering chamber volume of 100 μl allows a 320 μg strength variant of the 160 μg formulation.
The delivery characteristics of the formulation in cans equipped with standard Bespack BK 360 actuators with 0.3 mm orifice diameter and a metering chamber volume of 50 μl are reported in Table 2. The use of a metering chamber volume of 100 μl allows a 160 μg strength variant of the 80 μg formulation.
The relevant parameters were determined as described in Example 1.

[2] = inhaled single doses of at least 160 μg; cited from earlier work
[3] = nominal dose 20 μg, HFA 134a, 13% ethanol, 1% glycerol
[4] = nominal dose 20 μg, HFA 134a, 13% ethanol, 1% glycerol, 0.3 mm orifice, 50 μl chamber
[5] = nominal dose 40 μg, HFA 134a, 13% ethanol, 1% glycerol
[6] = nominal dose 40 μg, HFA 134a, 13% ethanol, 1% glycerol, 0.3 mm orifice, 50 μl chamber
[7] = nominal dose 80 μg, HFA 134a, 13% ethanol, 1% glycerol
[8] = nominal dose 80 μg, HFA 134a, 13% ethanol, 1% glycerol, 0.3 mm orifice, 50 μl chamber
[9] = nominal dose 80 μg, HFA 134a, 19% ethanol, without the low volatility component
[10] = nominal dose 160 μg, HFA 134a, 13% ethanol, 1% glycerol
[11] = nominal dose 160 μg, HFA 134a, 13% ethanol, 1% glycerol, 0.3 mm orifice, 50 μl chamber
[12] = nominal dose 160 μg, HFA 134a, 19% ethanol, without the low volatility component
[13] = nominal dose 320 μg, HFA 134a, 13% ethanol, 1% glycerol
[14] = nominal dose 320 μg, HFA 134a, 13% ethanol, 1% glycerol, 0.3 mm orifice, 100 μl chamber

SMILES: CC(C)[N+]1(C)[C@@H]2CC[C@H]1CC(OC(=O)C(CO)c1ccccc1)C2.[Br-] (stereo partly drawn) [ipratropium bromide]
- MAD ([1]; Example 1 formulations with glycerol, over all nominal doses): 2.2-2.9 μm
- MAD ([1]; formulation containing an ethanol level of 19% by weight, nominal doses 80 and 160 μg): 1.2-1.3 μm
- GSD [1, 3]: 2.1 ± 0.8
- MAD [1, 3]: 2.4 ± 0.3 μm
- Respirable fraction [1, 3]: 33.3 ± 3.8%
- Delivered dose [1, 4]: 18.8 ± 1.6 µg
- Metered dose [1, 4]: 20.6 ± 1.6 µg
- Respirable dose ([1]; nominal dose 20 μg, particles less than 4.7 μm, HFA 134a, 13% ethanol, 1% glycerol): 6.8 ± 1.1 µg
- GSD [1, 5]: 2.1 ± 0.1
- MAD [1, 5]: 2.2 ± 0.1 μm
- Respirable fraction [1, 5]: 31.5 ± 3.8%
- Delivered dose [1, 6]: 38.7 ± 1.9 µg
- Metered dose [1, 6]: 42.2 ± 1.8 µg
- Respirable dose ([1]; nominal dose 40 μg, particles less than 4.7 μm, HFA 134a, 13% ethanol, 1% glycerol): 11.7 ± 1.2 µg
- GSD [1, 7]: 2.2 ± 0.1
- MAD [1, 7]: 2.7 ± 0.3 μm
- Respirable fraction [1, 7]: 32.0 ± 6.1%
- Delivered dose [1, 8]: 72.7 ± 0.6 µg
- Metered dose [1, 8]: 78.5 ± 0.4 µg
- Delivered dose [1, 9]: 70.0 ± 1.0 µg
- GSD [1, 9]: 4.3 ± 0.4
- MAD [1, 9]: 1.2 ± 0.1 μm
- Respirable dose [1, 9]: 20.0 ± 1.3 µg
- Respirable fraction [1, 9]: 28.7 ± 1.5%
- Metered dose ([1]; nominal dose 80 μg, HFA 134a, 19% ethanol, without the low volatility component, 0.3 mm orifice, 50 μl chamber): 76.6 ± 1.6 µg
- Respirable dose ([1]; nominal dose 80 μg, particles less than 4.7 μm, HFA 134a, 13% ethanol, 1% glycerol): 23.3 ± 4.5 µg
- GSD [1, 10]: 2.3 ± 0.1
- MAD [1, 10]: 2.5 ± 0.2 μm
- Respirable fraction [1, 10]: 30.4 ± 3.5%
- Delivered dose [1, 11]: 149.2 ± 10.7 µg
- Metered dose [1, 11]: 161.1 ± 12.5 µg
- Delivered dose [1, 12]: 144.2 ± 1.7 µg
- GSD [1, 12]: 6.2 ± 0.2
- MAD [1, 12]: 1.3 ± 0.2 μm
- Respirable dose [1, 12]: 31.4 ± 1.3 µg
- Respirable fraction [1, 12]: 21.8 ± 1.1%
- Metered dose ([1]; nominal dose 160 μg, HFA 134a, 19% ethanol, without the low volatility component, 0.3 mm orifice, 100 μl chamber): 158.5 ± 2.0 µg
- Respirable dose ([1]; nominal dose 160 μg, particles less than 4.7 μm, HFA 134a, 13% ethanol, 1% glycerol): 45.2 ± 2.5 µg
- GSD [1, 13]: 2.6 ± 0.1
- MAD [1, 13]: 2.9 ± 0.2 μm
- Respirable fraction [1, 13]: 25.2 ± 1.2%
- Delivered dose [1, 14]: 290.5 ± 1.9 µg
- Metered dose [1, 14]: 321.4 ± 2.0 µg
- Respirable dose ([1]; nominal dose 320 μg, particles less than 4.7 μm, HFA 134a, 13% ethanol, 1% glycerol): 73.2 ± 3.0 µg
- Duration of action [2]: up to 12 hours

Source: US6964759B2, “Formulations containing an anticholinergic drug for the treatment of chronic obstructive pulmonary disease” (Chiesi Farmaceutici S.p.A., priority 2000, dated 2005)
